Data set [1] concerns CYP2A19.
Data set [2] concerns CYP2A19. Kind of data set: in vitro. The settings on record: both, hybrid sow × Piétrain boar, pig.
Data set [3] concerns CYP2D.
The test system of data set [4] is CYP2D. Kind of data set: in vitro. To be noted: both, hybrid sow × Piétrain boar, pig.
Data set [5] relates to CYP2C.
The subject of data set [6] is CYP3A.
The subject of data set [7] is CYP2D. This is another data set of the same source.
Data set [8] deals with CYP2C. The source holds these as a separate data set.
For data set [9], the system named is CYP3A. The source holds these as a separate data set.
For data set [10] the following is noted: pig, in vivo; cited from earlier work.
The next data set relates to IPEC-J2 cells. The settings on record: cited from earlier work.
Data set [11] has as its system CYP2C. The data set can be described thus: in vitro. The settings on record: both, hybrid sow × Piétrain boar, pig.
The test system of data set [12] is CYP3A. Kind of data set: in vitro. To be noted: both, pig.
For data set [13] the following is noted: both, hybrid sow × Piétrain boars, pig, in vivo.
A short description of another data set: in vivo. To be noted: both, hybrid sow × Piétrain boars, pig; for k el: Ke.
Setting [14] is: both, hybrid sow × Piétrain boar, pig.

Data on seven compounds can be found in article PMC6492070 (Frontiers in Pharmacology, 2019).

SMILES strings stand for the structures. “And” between values parts separate entries of the source, which are not always exact repeats. Equal values may be shown once. Read-outs that look alike come from different tables or passages of the source.

As usually defined, the Km is the substrate concentration at which the rate is half of its maximum. For orientation: Ki means the equilibrium dissociation constant of an inhibitor or competing ligand from its target. A high value points to a looser hold on the target. The AUC(0-inf) is total exposure, with the tail of the curve extrapolated. A higher AUC(0-inf) goes with high exposure. The clearance is the volume of plasma or blood freed of the substance per unit of time. As a reminder, the MRT is the average time that molecules of a dose stay in the body. As a reminder, the Vd is the apparent volume that relates the amount in the body to the concentration in plasma or blood. Higher therefore signals extensive tissue distribution. The term Tmax denotes the time at which the peak concentration occurs.

For `O=c1ccc2ccccc2o1` [CM, coumarin, reference compound], the Vmax with CYP2A19 [1] is 359 (4.1) pmol/mg protein/min. In addition, the Km in the data set with CYP2A19 [2] was determined as 0.91 µM.
Turning to `COc1ccc2c(c1)[C@]13CCCC[C@@H]1[C@H](C2)N(C)CC3` [DXM, Dextromethorphan, reference compound], in the data set with CYP2D [3], the Vmax was 1971 (39.7) pmol/mg protein/min. In addition, the Km in the data set with CYP2D [4] was determined as 2 µM.
Regarding `CCCC[C@@H](C)[C@@H](OC(=O)C[C@@H](CC(=O)O)C(=O)O)[C@H](C[C@@H](C)C[C@H](O)CCCC[C@@H](O)C[C@H](O)[C@H](C)N)OC(=O)C[C@@H](CC(=O)O)C(=O)O` [FB1, fumonisin B1], in the data set with CYP2A19 [1], the Inhibition type entry was “Full mixed”, the Ki worked out at 2.3 µM, the Residual activity was 22.8 (3.50) % and the α is on record as 14.0 (4.30). Moreover, the “Inhibition (efficacy)” value with CYP2A19 [1] (microsomes) turned out to be 17%.
As to `CC(=O)OC[C@]12C[C@H](OC(=O)CC(C)C)C(C)=C[C@H]1O[C@@H]1[C@H](O)[C@@H](OC(C)=O)[C@@]2(C)[C@]12CO2` [T-2, T-2 toxin], in the data set with CYP2C [5], the “Formed metabolite OH-TB” value was 8.9 ng/mL and 12.9 ng/mL and 13.4 ng/mL; the OH-TB formation rate was 12.4325 pmol/min/mg protein and 18.0201 pmol/min/mg protein and 18.7185 pmol/min/mg protein; the “OH-TB formation rate, PRE” value was 12.0134 pmol/min/mg protein and 12.2928 pmol/min/mg protein; the “OH-TB, pre-incubation (ruwe data)” value is 8.6 and 8.8. Besides, the “Residual CYP enzyme activity, TB (CYP2C)” value in the data set on CYP2C [5] is 46.3% and 62.3%. For the same compound, in the data set with CYP2E, the “Formed metabolite OH-CZ” value was 25.3 ng/mL and 26.9 ng/mL; the OH-CZ formation rate is 272.688 pmol/min/mg protein and 289.933 pmol/min/mg protein; the “OH-CZ formation rate, PRE” value is 237.12 pmol/min/mg protein and 232.809 pmol/min/mg protein and 217.719 pmol/min/mg protein; the “OH-CZ, pre-incubation (ruwe data)” value is 22 and 21.6 and 20.2. Moreover, in the data set with CYP2E, the “Residual CYP enzyme activity, CZ (CYP2E)” value is 65.4% and 79.5%. For the same compound, in the data set on CYP2A, the “Formed metabolite OH-CM” value is 6.5 ng/mL and 7.1 ng/mL and 6.9 ng/mL; the OH-CM formation rate was 80.1776 pmol/min/mg protein and 87.5786 pmol/min/mg protein and 85.1116 pmol/min/mg protein; the “OH-CM formation rate, PRE” value was 65.3756 pmol/min/mg protein and 55.5076 pmol/min/mg protein and 64.1421 pmol/min/mg protein; the “OH-CM, pre-incubation (ruwe data)” value is 5.3 and 4.5 and 5.2. Moreover, in the data set with CYP2A, the “Residual CYP enzyme activity, CM (CYP2A)” value is 72.5% and 99.1%. Further, in the data set on CYP1A, the “Formed metabolite PAR” value is 47.3 ng/mL and 46.6 ng/mL and 46.9 ng/mL; the PAR formation rate is 625.827 pmol/min/mg protein and 616.565 pmol/min/mg protein and 620.535 pmol/min/mg protein; the “PAR formation rate, PRE” value was 523.948 pmol/min/mg protein and 490.871 pmol/min/mg protein and 492.194 pmol/min/mg protein; the “PAR, pre-incubation (ruwe data)” value is 39.6 and 37.1 and 37.2. Further, in the data set on CYP1A, the “Residual CYP enzyme activity, PH (CYP1A)” value was 78.2% and 96.7%. Besides, in the data set on CYP3A [6], the “Formed metabolite OH-MDZ” value was 163 ng/mL and 160.8 ng/mL and 268.8 ng/mL; the OH-MDZ formation rate was 953.858 pmol/min/mg protein and 940.984 pmol/min/mg protein and 1572.99 pmol/min/mg protein; the “OH-MDZ formation rate, PRE” value is 348.773 pmol/min/mg protein and 383.884 pmol/min/mg protein and 308.395 pmol/min/mg protein; the “OH-MDZ, pre-incubation (ruwe data)” value is 59.6 and 65.6 and 52.7. Also, in the data set with CYP2D [7], the DEX formation rate is 838.482 pmol/min/mg protein and 812.838 pmol/min/mg protein and 850.138 pmol/min/mg protein; the “DEX formation rate, PRE” value is 660.528 pmol/min/mg protein and 864.903 pmol/min/mg protein and 852.469 pmol/min/mg protein; the “DEX, pre-incubation (ruwe data)” value is 85 and 111.3 and 109.7; the “Formed metabolite DEX” value was 107.9 ng/mL and 104.6 ng/mL and 109.4 ng/mL. In addition, the “Residual CYP enzyme activity, DXM (CYP2D)” value in the data set with CYP2D [7] is 94.2% and 99.1%. Also, in the data set on CYP2C [8], the Inhibition type result is “Full competitive”, the Ki stood at 14.8 µM and the Residual activity is recorded as 24.0 (1.38) %. In the data set with CYP3A [9], the Inhibition type entry was “Full non-competitive” and the affinity corresponds to a Ki of 27 µM. Besides, in data set [10], the Mean elimination half-life was 0.23 h; the “Parent toxin in plasma and liver” value is recorded as “no parent toxin could be detected”. Besides, in the data set with IPEC-J2 cells, the “Concentration significantly affecting epithelial integrity” value was 10 ng/mL and 21.43 nM.
For the compound `CCCCNC(=O)NS(=O)(=O)c1ccc(C)cc1` [TB, tolbutamide, reference compound], the Vmax in the data set on CYP2C [8] is 160 (16.0) pmol/mg protein/min and 132 (17.9) pmol/mg protein/min. Moreover, the Km in the data set on CYP2C [8] (setting [14]) amounted to 804 µM; with CYP2C [11] (Km), 1070 µM.
With `C[C@H]1CCCC(=O)CCC/C=C/c2cc(O)cc(O)c2C(=O)O1` [ZEA, zearalenone], the Inhibition type entry is given as “Partial competitive” in the data set on CYP2C [8], “Partial mixed” in the data set with CYP3A [9] and “Full non-competitive” in the data set with CYP2D [3]. Also, the α is reported as 9.5 (1.05) in the data set with CYP2C [8] and 3.8 (1.43) with CYP3A [9]. The Residual activity in the data set on CYP2C [8] (setting [14]) was 18.7 (0.35) %; in the data set on CYP3A [9] (both, hybrid sow × Piétrain boars, pig, microsomes) it was 27.0 (3.16) %. Moreover, in the data set with CYP3A [9], the β is listed as 0.26 (0.064). The “mean OH-MDZ formation rate as % of [mycotoxine]=0” value in the data set with CYP3A [9] (both, hybrid sow × Piétrain boar cross, pig) stood at 26.7981. In the data set with CYP2D [3], the “DEX formation rate as % of [mycotoxine]=0” value was found to be 37.1724. For the same compound, the Ki in the data set with CYP2C [11] came to 0.54 µM; with CYP3A [12] (hybrid sow × Piétrain boars, microsomes), 1.1 µM; in the data set on CYP2D [4] it was 55.4 µM. The activity with CYP2C [11] (Residual activity) is less than 30%; with CYP3A [12] (hybrid sow × Piétrain boars, microsomes, Residual activity), less than 30%; in the data set with CYP2D [4], 32%.
In the case of `Cc1ncc2n1-c1ccc(Cl)cc1C(c1ccccc1F)=NC2` [midazolam], in the data set with CYP3A [9], the Vmax is 2155 (73.8) pmol/mg protein/min and 1899 (88.2) pmol/mg protein/min. The Km in the data set on CYP3A [9] (setting [14]) was determined as 11.3 µM; in the data set with CYP3A [12] (hybrid sow × Piétrain boar, Km) it was 12.3 µM. Moreover, the Cl in data set [13] (iv, 0.036 mg/kg) is listed as 45.5 (22.75) L/h. Besides, the “AUC (0-inf) in the ZEA group, times higher on average” value in [13] (po) is recorded as “about 2.5 times”. For the same compound, the “Average Ka of the T-2 group, times higher compared to the control group” value in [13] (po) is recorded as “about 2.5 times”. Further, the AUC(0-inf) in “in vivo” (iv, 0.036 mg/kg) was 0.0115 µg·h/mL; in the data set “in vivo” (iv), 0.018 µg·h/mL. In “in vivo” (iv, 0.036 mg/kg, Cl), the clearance was 767 mL/min. Besides, the k el in the data set “in vivo” (iv, 0.036 mg/kg) was 0.000231 s⁻¹; in the data set “in vivo” (po, 0.15 mg/kg), 0.000108 s⁻¹. The MRT in “in vivo” (iv, 0.036 mg/kg) worked out at 0.71 h; in “in vivo” (po, 0.15 mg/kg) it was 3.58 h. In “in vivo” (iv, 0.036 mg/kg, Vd), this compound returned a Vd of 60.8 L. In addition, the Tmax was 0.714 ± 0.559 h in “in vivo” (po, 0.15 mg/kg, Mean Tmax after removing the observation); 1.15 h in the data set “in vivo” (po, 0.15 mg/kg, Tmax); 4 h in “in vivo” (po, 0.15 mg/kg, Tmax of one pig); 0.67 to 2 h in the data set “in vivo” (po, 0.15 mg/kg, Tmax range); 0.16 to 1.5 h in the data set “in vivo” (po, 0.15 mg/kg, Tmax range of the other pigs).
